Counter-ions that a name gives are not always drawn. Like-named read-outs stand apart in the source and are kept apart here.
Legend:
[1] = target: T1, serotonin re-uptake (Rattus norvegicus, UniProt P31652); assay: Serotonin re-uptake inhibitory activity (synaptosome, [3H]5-HT); format: biochemical; conditions: synaptosome from rat whole brain except cerebellum; [3H]5-HT, 37° C.; read-out: IC50 (nM) Serotonin re-uptake inhibitory activity
T1 construct: synaptosome prepared from rat whole brains except the cerebellums; from tissue; host or cells: synaptosomes from rat whole brain except the cerebellum
Method: Serotonin re-uptake inhibitory activity was determined using synaptosome prepared from rat whole brains except the cerebellums. Briefly, 10 μl of DMSO solution-dissolved test substance (control group; DMSO solution alone) was added to 1 ml of synaptosome and incubated for 5 min at 37° C. (in the control, DMSO alone was added to the synaptosome and incubated at 4° C.). Furthermore, 10 μl of [^3H]5-HT solution (final concentration: 10 μM as a total concentration of 5-HT, 100 nM as [^3H]5-HT) was added and incubated for 5 min at 37° C. Then 4 ml of ice-cold saline was added to stop the response. The response solution was filtered, 4 ml of saline was added, and the solution was once again filtered. Furthermore, 5 ml of Pico-Fluor was added, then ^3H levels on filter papers were counted by a liquid scintillation counter. Concentrations of test compounds to inhibit serotonin re-uptake by 50% (IC50) were calculated.

[2] = target: T2, acetylcholinesterase (Mus musculus, UniProt P21836); assay: biochemical
T2 construct: phosphate buffer solution containing the brain homogenate; from tissue; host or cells: mouse whole brain homogenate
T2 sequence (P21836 32-614): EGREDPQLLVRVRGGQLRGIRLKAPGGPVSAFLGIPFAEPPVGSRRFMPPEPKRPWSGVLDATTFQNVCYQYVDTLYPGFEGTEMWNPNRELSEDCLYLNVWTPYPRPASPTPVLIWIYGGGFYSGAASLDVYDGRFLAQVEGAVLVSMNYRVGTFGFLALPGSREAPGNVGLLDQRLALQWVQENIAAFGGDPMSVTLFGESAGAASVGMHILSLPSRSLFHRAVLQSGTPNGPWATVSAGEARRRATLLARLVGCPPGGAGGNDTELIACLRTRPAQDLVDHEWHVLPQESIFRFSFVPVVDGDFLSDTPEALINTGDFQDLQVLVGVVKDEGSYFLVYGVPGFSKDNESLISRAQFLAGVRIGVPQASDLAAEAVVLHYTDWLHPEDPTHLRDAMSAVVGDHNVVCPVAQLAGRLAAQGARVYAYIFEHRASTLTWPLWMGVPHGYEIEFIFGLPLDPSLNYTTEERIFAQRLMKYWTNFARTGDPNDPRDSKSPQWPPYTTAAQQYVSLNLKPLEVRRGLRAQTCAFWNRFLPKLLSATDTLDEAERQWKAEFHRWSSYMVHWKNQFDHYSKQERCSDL

[3] = mouse whole brain homogenate, acetylthiocholine/DTNB, absorbance 412 nm, read-out: IC50 (nM) Acetylcholinesterase inhibitory activity

T1 sequence (P31652 whole entry): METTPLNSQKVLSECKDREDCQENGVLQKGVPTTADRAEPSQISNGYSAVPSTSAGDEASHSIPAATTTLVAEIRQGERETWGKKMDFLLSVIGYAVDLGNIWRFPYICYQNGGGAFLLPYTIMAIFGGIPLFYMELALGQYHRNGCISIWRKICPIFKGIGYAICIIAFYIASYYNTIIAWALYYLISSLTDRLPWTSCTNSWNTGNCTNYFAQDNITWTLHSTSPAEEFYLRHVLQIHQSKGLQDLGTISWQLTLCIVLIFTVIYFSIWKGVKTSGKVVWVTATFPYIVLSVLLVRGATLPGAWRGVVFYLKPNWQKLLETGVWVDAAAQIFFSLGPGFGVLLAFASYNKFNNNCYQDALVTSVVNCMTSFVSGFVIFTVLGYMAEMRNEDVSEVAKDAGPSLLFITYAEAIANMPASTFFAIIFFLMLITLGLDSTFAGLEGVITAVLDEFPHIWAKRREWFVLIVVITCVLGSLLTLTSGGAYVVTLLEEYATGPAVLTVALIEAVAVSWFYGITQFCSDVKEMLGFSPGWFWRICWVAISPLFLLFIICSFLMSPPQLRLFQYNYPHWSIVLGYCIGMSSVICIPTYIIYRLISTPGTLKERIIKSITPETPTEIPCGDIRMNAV

Row | Compound | IC50 [1] [nM] | IC50 [2] [nM] | IC50 [2, 3] [nM]
1 | CNC(CCOc1ccc(Cl)cc1)c1ccc(OC(=O)N(C)C)cc1 (stereo not shown) [Test Compound 16, 4-[3-(4-Chlorophenoxy)-1-methylaminopropyl]phenyl dimethylcarbamate hydrochloride] | 493 | 210 | 
2 | CNC(CCOc1ccc(F)cc1)c1ccc(OC(=O)N(C)C)cc1 (stereo not shown) [Test Compound 30, 4-[3-(4-Fluorophenoxy)-1-methylaminopropyl]phenyl dimethylcarbamate hydrochloride] | 594 | 790 | 
3 | CN(C)C(=O)Oc1ccc(C(CCOc2ccc(F)cc2)N(C)C)cc1 (stereo not shown) [Test Compound 31, hydrochloride] | 323 |  | 440
4 | CNC(CCOc1cccc(Cl)c1)c1ccc(OC(=O)N(C)C)cc1 (stereo not shown) [Test Compound 38, 4-[3-(3-chlorophenoxy)-1-methylaminopropyl]phenyl dimethylcarbamate hydrochloride] | 199 | 175 | 
5 | CN(C)C(=O)Oc1ccc(C(CCOc2ccc(Cl)cc2)N(C)C)cc1 (stereo not shown) [Test Compound 41, 4-[3-(4-Chlorophenoxy)-1-dimethylaminopropyl]phenyl dimethylcarbamate hydrochloride] | 507 | 79 | 
6 | CNC(CCOc1ccc(F)c(F)c1)c1ccc(OC(=O)N(C)C)cc1 (stereo not shown) [Test Compound 54, 4-[3-(3,4-Difluorophenoxy)-1-methylaminopropyl]phenyl dimethylcarbamate hydrochloride] | 166 | 670 | 
7 | CNC(CCOc1ccc(Cl)c(F)c1)c1ccc(OC(=O)N(C)C)cc1 (stereo not shown) [Test Compound 55, 4-[3-(4-Chloro-3-fluorophenoxy)-1-methylaminopropyl]phenyl dimethylcarbamate hydrochloride] | 60 | 280 | 
8 | CN[C@H](CCOc1cccc(Cl)c1)c1ccc(OC(=O)N(C)C)cc1 [Test Compound 61, (R)-4-[3-(3-Chlorophenoxy)-1-methylaminopropyl]phenyl dimethylcarbamate hydrochloride] | 182 | 230 | 
9 | CN[C@H](CCOc1ccc(Cl)cc1)c1ccc(OC(=O)N(C)C)cc1 [Test Compound 62, (R)-4-[3-(4-Chlorophenoxy)-1-methylaminopropyl]phenyl dimethylcarbamate hydrochloride] | 343 | 270 | 
10 | CNC(CCOc1cccc(F)c1)c1ccc(OC(=O)N(C)C)cc1 (stereo not shown) [Test Compound 68, 4-[3-(3-Fluorophenoxy)-1-methylaminopropyl]phenyl dimethylcarbamate hydrochloride] | 145 | 580 | 
11 | CN(C)C(=O)Oc1ccc(C(CCOc2cccc(F)c2)N(C)C)cc1 (stereo not shown) [Test Compound 70, 4-[1-Dimethylamino-3-(3-fluorophenoxy)propyl]phenyl dimethylcarbamate hydrochloride] | 86 | 90 | 
12 | CN(C)C(=O)Oc1ccc(C(CCOc2ccc(F)c(F)c2)N(C)C)cc1 (stereo not shown) [Test Compound 76, 4-[3-(3,4-Difluorophenoxy)-1-dimethylaminopropyl]phenyl dimethylcarbamate hydrochloride] | 124 | 300 | 
13 | CN[C@@H](CCOc1cccc(Cl)c1)c1ccc(OC(=O)N(C)C)cc1 [Test Compound 81, (S)-4-[3-(3-Chlorophenoxy)-1-methylaminopropyl]phenyl dimethylcarbamate hydrochloride] | 228 | 320 | 
14 | CN[C@@H](CCOc1ccc(Cl)cc1)c1ccc(OC(=O)N(C)C)cc1 [Test Compound 82, (S)-4-[3-(4-Chlorophenoxy)-1-methylaminopropyl]phenyl dimethylcarbamate hydrochloride] | 377 | 83 | 
15 | CN(C)C(=O)Oc1ccc(C(CCOc2ccc([N+](=O)[O-])cc2)N(C)C)cc1 (stereo not shown) [Test Compound 89, 4-[1-Dimethylamino-3-(4-nitrophenoxy)propyl]phenyl dimethylcarbamate hydrochloride] | 319 | 87 | 
16 | CNC(CCOc1ccc([N+](=O)[O-])cc1)c1cccc(OC(=O)N(C)C)c1 (stereo not shown) [Test Compound 95, 3-[1-Methylamino-3-(4-nitrophenoxy)propyl]phenyl dimethylcarbamate hydrochloride] | 221 | 52 | 
17 | CN(C)C(=O)Oc1ccc([C@@H](CCOc2ccc([N+](=O)[O-])cc2)N(C)C)cc1 [Test Compound 102, (R)-4-[1-Dimethylamino-3-(4-nitrophenoxy)propyl]phenyl dimethylcarbamate hydrochloride] | 167 | 170 | 
18 | CN(C)C(=O)Oc1cccc(C(CCOc2ccc([N+](=O)[O-])cc2)N(C)C)c1 (stereo not shown) [Test Compound 104, 3-[1-Dimethylamino-3-(4-nitrophenoxy)propyl]phenyl dimethylcarbamate hydrochloride] | 176 | 53 | 
19 | CNC(CCOc1ccc([N+](=O)[O-])cc1Cl)c1ccc(OC(=O)N(C)C)cc1 (stereo not shown) [Test Compound 124, 4-[3-(2-Chloro-4-nitrophenoxy)-1-methylaminopropyl]phenyl dimethylcarbamate hydrochloride] | 110 | 64 | 
20 | CN[C@@H](CCOc1ccc([N+](=O)[O-])cc1)c1cccc(OC(=O)N(C)C)c1 [Test Compound 125, (S) -3-[3-(4-Nitrophenoxy)-1-methylaminopropyl]phenyl dimathylcarbamate hydrochloride] | 841 |  | 19
21 | CN[C@@H](CCOc1ccc([N+](=O)[O-])cc1Cl)c1ccc(OC(=O)N(C)C)cc1 [Test Compound 127, (S)-4-[3-(2-Chloro-4-nitrophenoxy)-1-methylaminopropyl]phenyl dimethylcarbamate hydrochloride] | 856 | 40 | 
22 | CN[C@H](CCOc1ccc([N+](=O)[O-])cc1Cl)c1ccc(OC(=O)N(C)C)cc1 [Test Compound 128, (R)-4-[3-(2-Chloro-4-nitrophenoxy)-1-methylaminopropyl]phenyl dimethylcarbamate hydrochloride] | 70 | 15 | 
23 | CN(C)C(=O)Oc1ccc([C@H](CCOc2ccc([N+](=O)[O-])cc2Cl)N(C)C)cc1 [Test Compound 129, (S)-4-[3-(2-Chloro-4-nitrophenoxy)-1-dimethylaminopropyl]phenyl dimethylcarbamate hydrochloride] | 650 | 64 | 
24 | CN(C)C(=O)Oc1ccc([C@@H](CCOc2ccc([N+](=O)[O-])cc2Cl)N(C)C)cc1 [Test Compound 130, (R)-4-[3-(2-Chloro-4-nitrophenoxy)-1-dimethylaminopropyl]phenyl dimethylcarbamate hydrochloride] | 88 | 42 | 
25 | CN(C)C(=O)Oc1ccc(C(CCOc2ccc([N+](=O)[O-])cc2Cl)N(C)C)cc1 (stereo not shown) [Test Compound 131, 4-[3-(2-Chloro-4-nitrophenoxy)-1-dimethylaminopropyl]phenyl dimethylcarbamate hydrochloride] | 129 | 57 | 
26 | CN(C)C(=O)Oc1cccc([C@@H](CCOc2ccc([N+](=O)[O-])cc2)N(C)C)c1 [Test Compound 136, (R)-3-[3-(4-Nitrophenoxy)-1-dimethylaminopropyl]phenyl dimethylcarbamate hydrochloride] | 236 | 980 | 

Reference: patent US7504393B2, “Benzylamine analogues” (priority 2001, dated 2009)
